{"source": "paper PMC10647704", "about": "(Molecules, 2023)", "key": {"[1]": {"test_system": "C. albicans S2 (FLU-resistant)", "test": "microbe, parasite or virus in culture", "type": "cell-based"}, "[2]": {"test_system": "C. albicans S2 (FLU-resistant)", "test": "microbe, parasite or virus in culture", "type": "cell-based", "details": "read-out: MIC, colorimetric assay"}, "[3]": {"details": "Candida albicans, 24 h, read-out: MIC, turbidity assay"}, "[4]": {"details": "Candida albicans, 48 h, read-out: MIC, turbidity assay"}, "[5]": {"details": "Candida albicans, 48 h, read-out: Turbidity Assay IC50 C. albicans S2"}}, "note": "Like-named read-outs stand apart in the source and are kept apart here.", "data": [{"smiles": "CC1(C)C2CCC(Cn3[se]c4ccccc4c3=O)C1C2", "note": "(single isomer, unassigned; (-)) [CHB3]", "values": [{"measurement": "MIC", "setting": "[1]; [3]", "value": 50, "unit": "µM"}, {"measurement": "MIC", "setting": "[1]; [4]", "value": 25, "unit": "µM"}, {"measurement": "IC50", "setting": "[1]; [5]", "value": "15.1 ± 0.2", "unit": "µM"}, {"measurement": "MIC", "setting": "[2]; Candida albicans, 24 h", "value": 25, "unit": "µM"}, {"measurement": "MIC", "setting": "[2]; Candida albicans, 48 h", "value": 25, "unit": "µM"}]}, {"smiles": "C[C@@H]1[C@@H](n2[se]c3ccccc3c2=O)C[C@H]2C[C@@H]1C2(C)C", "note": "[CHB1]", "values": [{"measurement": "MIC", "setting": "[1]; [3]", "value": 3.1, "unit": "µM"}, {"measurement": "MIC", "setting": "[1]; [4]", "value": 3.1, "unit": "µM"}, {"measurement": "IC50", "setting": "[1]; [5]", "value": "1.8 ± 0.1", "unit": "µM"}]}, {"smiles": "C[C@H]1[C@H](n2[se]c3ccccc3c2=O)C[C@@H]2C[C@H]1C2(C)C", "note": "[CHB2]", "values": [{"measurement": "IC50", "setting": "[1]; [5]", "value": "6.2 ± 0.1", "unit": "µM"}, {"measurement": "MIC", "setting": "[2]; Candida albicans, 24 h", "value": 6.3, "unit": "µM"}, {"measurement": "MIC", "setting": "[2]; Candida albicans, 48 h", "value": 3.1, "unit": "µM"}]}, {"smiles": "C[C@H]1CC[C@@H]2[C@H]([C@@H]1n1[se]c3ccccc3c1=O)C2(C)C", "note": "[CHB4]", "values": [{"measurement": "MIC", "setting": "[1]; [3]", "value": 3.1, "unit": "µM"}, {"measurement": "MIC", "setting": "[1]; [4]", "value": 3.1, "unit": "µM"}, {"measurement": "IC50", "setting": "[1]; [5]", "value": "1.8 ± 0.1", "unit": "µM"}, {"measurement": "MIC", "setting": "[2]; Candida albicans, 24 h", "value": 3.1, "unit": "µM"}, {"measurement": "MIC", "setting": "[2]; Candida albicans, 48 h", "value": 3.1, "unit": "µM"}]}, {"smiles": "C[C@@H]1C[C@H]2[C@@H](C[C@H]1n1[se]c3ccccc3c1=O)C2(C)C", "note": "[CHB5]", "values": [{"measurement": "IC50", "setting": "[1]; [5]", "value": "14.4 ± 0.5", "unit": "µM"}]}, {"smiles": "CC(C)[C@@H]1CC[C@@H](C)C[C@H]1n1[se]c2ccccc2c1=O", "note": "[CHB6, (−)-N-(1R,2S,5R)-menthyl-1,2-benzizoselenazol-3(2H)-one]", "values": [{"measurement": "MIC", "setting": "[1]; [3]", "value": 3.1, "unit": "µM"}, {"measurement": "MIC", "setting": "[1]; [4]", "value": 3.1, "unit": "µM"}, {"measurement": "IC50", "setting": "[1]; [5]", "value": "1.8 ± 0.1", "unit": "µM"}, {"measurement": "MIC", "setting": "[2]; Candida albicans, 24 h", "value": 6.3, "unit": "µM"}, {"measurement": "MIC", "setting": "[2]; Candida albicans, 48 h", "value": 6.3, "unit": "µM"}]}, {"smiles": "O=c1c2ccccc2[se]n1-c1ccccc1", "note": "[EB, Ebselen, reference compound]", "values": [{"measurement": "IC50", "setting": "[1]; Abs600nm at 48 h; read-out: Turbidity Assay IC50 C. albicans S2", "value": "14.3 ± 0.46", "unit": "µM"}, {"measurement": "MIC", "setting": "[1]; C. albicans S2, 24 h; for FLU the lowest concentration causing 70% decrease in turbidity; read-out: MIC, turbidity assay", "value": 25.0, "unit": "µM"}, {"measurement": "MIC", "setting": "[1]; C. albicans S2, 48 h; for FLU the lowest concentration causing 70% decrease in turbidity; read-out: MIC, turbidity assay", "value": 25.0, "unit": "µM"}, {"measurement": "MIC", "setting": "[1]; Candida albicans, 24 h; read-out: MIC, turbidity assay", "value": 25, "unit": "µM"}, {"measurement": "IC50", "setting": "[1]; Candida albicans, 48 h, Abs600nm at 48 h; read-out: Turbidity Assay IC50 C. albicans S2", "value": "~14", "unit": "µM"}, {"measurement": "MIC", "setting": "[1]; Candida albicans, 48 h; read-out: MIC, turbidity assay", "value": 25, "unit": "µM"}, {"measurement": "MIC", "setting": "[2]; C. albicans S2, 24 h, resazurin", "value": 25.0, "unit": "µM"}, {"measurement": "MIC", "setting": "[2]; C. albicans S2, 48 h, resazurin", "value": 25.0, "unit": "µM"}, {"measurement": "MIC", "setting": "[2]; Candida albicans, C. albicans S2, 24 h, resazurin", "value": 25, "unit": "µM"}, {"measurement": "MIC", "setting": "[2]; Candida albicans, C. albicans S2, 48 h, resazurin", "value": 25, "unit": "µM"}]}]}
